Reference: patent US9346815B2, “5-chloro-2-difluoromethoxyphenyl pyrazolopyrimidine compounds, compositions and methods of use thereof” (Genentech, Inc., priority 2014, dated 2016)
Where a name gives a salt, the structure may show the parent alone. Read-outs that look alike come from different tables or passages of the source.

Legend:
[1] = system: JAK1-dependent STAT6 phosphorylation downstream of IL-13 stimulation in BEAS-2B human bronchial epithelial cells; test: JAK1 pathway assay in BEAS-2B cells (IL-13-pSTAT6, MSD); assay type: cell-based; settings: read-out: IL13-pSTAT6 EC50 (uM)_BEAS-2B
Outline: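 TF-1 cells are starved of GM-CSF overnight and run in serum-free medium, while BEAS-2B cells stay in complete growth medium. Inhibition of STAT6 phosphorylation is measured by MSD.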

[2] = target: isolated recombinant JAK2 kinase domain (Homo sapiens (Human), UniProt O60674); test: JAK2 enzyme assay (Caliper LabChip, peptide phosphorylation); assay type: biochemical; settings: 25 μM ATP
Sequence of isolated recombinant JAK2 kinase domain (O60674 849-1124): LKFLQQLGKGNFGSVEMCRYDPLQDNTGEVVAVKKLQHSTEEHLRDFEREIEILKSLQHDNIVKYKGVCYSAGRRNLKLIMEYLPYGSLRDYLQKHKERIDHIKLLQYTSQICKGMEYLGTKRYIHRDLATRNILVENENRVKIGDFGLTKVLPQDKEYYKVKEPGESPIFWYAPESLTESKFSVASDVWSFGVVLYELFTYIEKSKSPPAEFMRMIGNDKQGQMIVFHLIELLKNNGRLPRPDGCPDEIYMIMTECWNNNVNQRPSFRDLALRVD

[3] = target: isolated recombinant JAK1 kinase domain (Homo sapiens (Human), UniProt P23458); test: JAK1 enzyme assay (Caliper LabChip, peptide phosphorylation); assay type: biochemical
Sequence of isolated recombinant JAK1 kinase domain (P23458 875-1153): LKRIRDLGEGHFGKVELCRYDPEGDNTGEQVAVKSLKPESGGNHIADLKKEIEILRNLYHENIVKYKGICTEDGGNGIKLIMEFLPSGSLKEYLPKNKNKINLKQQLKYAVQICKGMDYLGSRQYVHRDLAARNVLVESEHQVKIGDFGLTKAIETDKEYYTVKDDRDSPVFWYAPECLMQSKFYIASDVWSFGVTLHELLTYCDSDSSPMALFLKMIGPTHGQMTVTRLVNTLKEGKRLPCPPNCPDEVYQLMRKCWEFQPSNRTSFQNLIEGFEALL

[4] = isolated recombinant JAK1 kinase domain, 25 μM ATP

SMILES	Ki [2] [nM]	Ki [3, 4] [nM]	EC50 [1] [µM]	Ki [3] [nM]
N#CCCN1CCN(C(=O)Cn2cc(NC(=O)c3cnn4cccnc34)c(-c3cc(Cl)ccc3OC(F)F)n2)CC1 [Example 406, N-(3-(5-chloro-2-(difluoromethoxy)phenyl)-1-(2-(4-(2-cyanoethyl)piperazin-1-yl)-2-oxoethyl)-1H-pyrazol-4-yl)pyrazolo[1,5-a]pyrimidine-3-carboxamide]	0.99	0.46	0.0333	
O=C1C=C(CN2CCN(C(=O)Cn3cc(NC(=O)c4cnn5cccnc45)c(-c4cc(Cl)ccc4OC(F)F)n3)CC2)CO1 [Example 351, N-[3-[5-chloro-2-(difluoromethoxy)phenyl]-1-(2-oxo-2-[4-[(5-oxo-2,5-dihydrofuran-3-yl)methyl]piperazin-1-yl]ethyl)-1H-pyrazol-4-yl]pyrazolo[1,5-a]pyrimidine-3-carboxamide]	0.94	0.46	0.0365	
COC(=O)CNC1CCN(C(=O)Cn2cc(NC(=O)c3cnn4cccnc34)c(-c3cc(Cl)ccc3OC(F)F)n2)CC1 [Example 329, methyl 2-[[1-(2-[3-[5-chloro-2-(difluoromethoxy)phenyl]-4-[pyrazolo[1,5-a]pyrimidine-3-amido]-1H-pyrazol-1-yl]acetyl)piperidin-4-yl]amino]acetate formate]	0.76		0.0115	0.3
CN(CCCC#N)C1CCN(C(=O)Cn2cc(NC(=O)c3cnn4cccnc34)c(-c3cc(Cl)ccc3OC(F)F)n2)CC1 [Example 464, N-(3-(5-chloro-2-(difluoromethoxy)phenyl)-1-(2-(4-((3-cyanopropyl)(methyl)amino)piperidin-1-yl)-2-oxoethyl)-1H-pyrazol-4-yl)pyrazolo[1,5-a]pyrimidine-3-carboxamide]	1.41	0.49	0.0095	
CN[C@@H](C)Cn1cc(NC(=O)c2cnn3cccnc23)c(-c2cc(Cl)ccc2OC(F)F)n1 [Example 369, N-[3-[5-chloro-2-(difluoromethoxy)phenyl]-1-[(2S)-2-(methylamino)propyl]-1H-pyrazol-4-yl]pyrazolo[1,5-a]pyrimidine-3-carboxamide]	1.25	1.13	0.0093	
COC(=O)C1CCN(CCN2CCN(C(=O)Cn3cc(NC(=O)c4cnn5cccnc45)c(-c4cc(Cl)ccc4OC(F)F)n3)CC2)CC1 [Example 333, methyl1-[2-[4-(2-[3-[5-chloro-2-(difluoromethoxy)phenyl]-4-[pyrazolo[1,5-a]pyrimidine-3-amido]-1H-pyrazol-1-yl]acetyl)piperazin-1-yl]ethyl]piperidine-4-carboxylate]	1.96	0.69	0.0065	
CC1(C(=O)OCCN2CCOCC2)CCN(C(=O)Cn2cc(NC(=O)c3cnn4cccnc34)c(-c3cc(Cl)ccc3OC(F)F)n2)CC1 [Example 339, 2-(morpholin-4-yl)ethyl1-(2-[3-[5-chloro-2-(difluoromethoxy)phenyl]-4-[pyrazolo[1,5-a]pyrimidine-3-amido]-1H-pyrazol-1-yl]acetyl)-4-methylpiperidine-4-carboxylate]	1.01	0.41	0.0094	
N#CCCNC1CCC(=CCn2cc(NC(=O)c3cnn4cccnc34)c(-c3cc(Cl)ccc3OC(F)F)n2)CC1 (stereo not drawn) [Example 421, N-(3-(5-chloro-2-(difluoromethoxy)phenyl)-1-(2-(4-(2-cyanoethylamino)cyclohexylidene)ethyl)-1H-pyrazol-4-yl)pyrazolo[1,5-a]pyrimidine-3-carboxamide]	0.89	0.65	0.0498	
N#CCCCNC1CCN(C(=O)Cn2cc(NC(=O)c3cnn4cccnc34)c(-c3cc(Cl)ccc3OC(F)F)n2)CC1 [Example 456, N-(3-(5-chloro-2-(difluoromethoxy)phenyl)-1-(2-(4-(3-cyanopropyl-amino)piperidin-1-yl)-2-oxoethyl)-1H-pyrazol-4-yl)pyrazolo[1,5-a]pyrimidine-3-carboxamide]	1.11	0.49	0.041	
O=C(Nc1cn(CC(=O)N2CCN(CCN3CCSCC3)CC2)nc1-c1cc(Cl)ccc1OC(F)F)c1cnn2cccnc12 [Example 460, N-(3-(5-chloro-2-(difluoromethoxy)phenyl)-1-(2-oxo-2-(4-(2-thiomorpholinoethyl)piperazin-1-yl)ethyl)-1H-pyrazol-4-yl)pyrazolo[1,5-a]pyrimidine-3-carboxamide]	1.1	0.39	0.0068	
O=C(Nc1cn(CC(=O)N2CCNCC2)nc1-c1cc(Cl)ccc1OC(F)F)c1cnn2cccnc12 [Example 324, N-[3-[5-chloro-2-(difluoromethoxy)phenyl]-1-[2-oxo-2-(piperazin-1-yl)ethyl]-1H-pyrazol-4-yl]pyrazolo[1,5-a]pyrimidine-3-carboxamide]	1.61	0.95	0.0566	

Continued by falling Ki [2], values first:

Ki [2] [nM]	Ki [3, 4] [nM]	SMILES	EC50 [1] [µM]	Ki [3] [nM]
0.78	0.71	O=C(Nc1cn(CC(=O)N2CC3CCCNC3C2)nc1-c1cc(Cl)ccc1OC(F)F)c1cnn2cccnc12 (stereo not drawn) [Example 439, N-(3-(5-chloro-2-(difluoromethoxy)phenyl)-1-(2-(octahydropyrrolo[3,4-b]pyridin-6-yl)-2-oxoethyl)-1H-pyrazol-4-yl)pyrazolo[1,5-a]pyrimidine-3-carboxamide]	0.0353	
0.77	0.51	CN1CCC2CN(C(=O)Cn3cc(NC(=O)c4cnn5cccnc45)c(-c4cc(Cl)ccc4OC(F)F)n3)CC21 (stereo not drawn) [Example 430, N-(3-(5-chloro-2-(difluoromethoxy)phenyl)-1-(2-(1-methyl-hexahydropyrrolo[3,4-b]pyrrol-5(1H)-yl)-2-oxoethyl)-1H-pyrazol-4-yl)pyrazolo[1,5-a]pyrimidine-3-carboxamide]	0.0058	
0.76	0.39	O=C1CC(N2CCN(C(=O)Cn3cc(NC(=O)c4cnn5cccnc45)c(-c4cc(Cl)ccc4OC(F)F)n3)CC2)CCO1 (stereo not drawn) [Example 347, N-[3-[5-chloro-2-(difluoromethoxy)phenyl]-1-[2-oxo-2-[4-(2-oxooxan-4-yl)piperazin-1-yl]ethyl]-1H-pyrazol-4-yl]pyrazolo[1,5-a]pyrimidine-3-carboxamide]	0.0307	
0.73	1.25	O=C(O)CNC1CCN(CCn2cc(NC(=O)c3cnn4cccnc34)c(-c3cc(Cl)ccc3OC(F)F)n2)CC1 [Example 311, 2-[[1-(2-[3-[5-chloro-2-(difluoromethoxy)phenyl]-4-[pyrazolo[1,5-a]pyrimidine-3-amido]-1H-pyrazol-1-yl]ethyl)piperidin-4-yl]amino]acetic acid]	2.6	
0.55	0.41	O=C(O)CNC1CCN(C(=O)Cn2cc(NC(=O)c3cnn4cccnc34)c(-c3cc(Cl)ccc3OC(F)F)n2)CC1 [Example 365, 2-[[1-(2-[3-[5-chloro-2-(difluoromethoxy)phenyl]-4-[pyrazolo[1,5-a]pyrimidine-3-amido]-1H-pyrazol-1-yl]acetyl)piperidin-4-yl]amino]acetic acid]	7.56	
0.46	1.24	COC(=O)[C@@H](N)CCn1cc(NC(=O)c2cnn3cccnc23)c(-c2cc(Cl)ccc2OC(F)F)n1 [Example 387, methyl (2S)-2-amino-4-[3-[5-chloro-2-(difluoromethoxy)phenyl]-4-[pyrazolo[1,5-a]pyrimidine-3-amido]-1H-pyrazol-1-yl]butanoate]	0.0107	
